Reference: patent US20200207734A1, “HETEROCYCLIC COMPOUND AND USE THEREOF” (Takeda Pharmaceutical Company Limited, priority 2017, published 2020)

Target: T1, human orexin type 2 receptor (Homo sapiens, UniProt O43614)
T1 construct: human orexin type 2 receptor cDNA was inserted into pcDNA3.1(+) plasmid vector (Invitrogen); expressed in transfected cells
T1 sequence (O43614 1-444): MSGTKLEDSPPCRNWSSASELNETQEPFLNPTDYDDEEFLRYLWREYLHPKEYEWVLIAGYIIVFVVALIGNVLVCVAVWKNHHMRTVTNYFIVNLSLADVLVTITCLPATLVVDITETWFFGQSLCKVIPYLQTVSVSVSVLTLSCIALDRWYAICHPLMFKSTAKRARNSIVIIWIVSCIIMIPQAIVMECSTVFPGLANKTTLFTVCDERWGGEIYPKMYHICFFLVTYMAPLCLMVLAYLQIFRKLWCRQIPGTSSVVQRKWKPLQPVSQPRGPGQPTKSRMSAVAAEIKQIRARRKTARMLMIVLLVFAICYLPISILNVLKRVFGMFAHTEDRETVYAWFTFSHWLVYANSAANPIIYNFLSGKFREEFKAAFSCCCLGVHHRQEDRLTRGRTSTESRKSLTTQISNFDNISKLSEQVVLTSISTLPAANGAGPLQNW
Assay: Measurement of orexin type 2 receptor agonist activity (calcium fluorescence, CHO cells expressing hOX2R)
Type: cell-based
Details: test compound 3 μM; CHO cells expressing human OX2 receptor; DMSO = 0%, orexin A (human) = 100%
Text: To obtain a cell clone stably expressing human orexin type 2 receptor, human orexin type 2 receptor cDNA was inserted into pcDNA3.1(+) plasmid vector (Invitrogen), and a plasmid DNA for expression of human orexin type 2 receptor (pcDNA3.1(+)/hOX2R) was cloned. The plasmid DNA was introduced into CHO-dhfr cell by an electroporation method, and human orexin type 2 receptor expressing clone cells were obtained by limiting dilution method by using G418 drug resistance as a selection marker.
CHO cells forcibly expressing human OX2 receptor were seeded in each well of 384 well black transparent bottom plate (BD Falcon) at 7,500 cells/well, and cultured for one day in a 5% CO2 incubator at 37° C. After removal of the medium in the cell plate, assay buffer A containing a calcium indicator (HBSS (Thermo Fisher Scientific), 20 mM HEPES (Thermo Fisher Scientific), 0.1% BSA (Wako Pure Chemical Industries, Ltd. or Sigma-Aldrich), 2.5 μg/mL Fluo-4 AM (DOJINDO Chemical), 0.08% Pluronic F127 (DOJINDO Chemical), 1.25 mM probenecid (DOJINDO Chemical)) was added at 30 μL/well. The plate was stood for 30 min in a 5% CO2 incubator at 37° C., and further stood at room temperature for 30 min. A test compound prepared by diluting with assay buffer B (HBSS, 20 mM HEPES, 0.1% BSA) was added at 10 μL/well, and the fluorescence value was measured by FDSSμCELL (Hamamatsu Photonics K.K.) every one sec for 1 min, and thereafter every two sec for 1 min 40 sec. The activity (%) of the test compound was calculated assuming that variation in the fluorescence value when DMSO was added instead of the test compound was 0%, and variation in the fluorescence value when orexin A (human) (PEPTIDE INSTITUTE, INC.) was added at the final concentration of 10 nM was 100%.

SMILES | OX2R agonist activity (3 μM, %)
CCS(=O)(=O)N[C@H]1CCN(C(=O)C(C)(C)O)[C@H]1Cc1cccc(-c2cc(F)cc(F)c2)c1 [Example 404, N-((2S,3S)-2-((3′,5′-difluorobiphenyl-3-yl)methyl)-1-(2-hydroxy-2-methylpropanoyl)pyrrolidin-3-yl)ethanesulfonamide] | 100%
CC(C)OC(=O)N1CCC[C@H](NS(C)(=O)=O)[C@@H]1CC1CCCN(c2ccccc2)C1 (relative stereo) [Example 214, isopropyl cis-3-((methylsulfonyl)amino)-2-((1-phenylpiperidin-3-yl)methyl)piperidine-1-carboxylate] | 70%
CS(=O)(=O)N[C@H]1CCN(C(=O)C2CCC2)[C@H]1Cc1csc(-c2ccccc2F)n1 (relative stereo) [Example 255, N-(cis-1-(cyclobutylcarbonyl)-2-((2-(2-fluorophenyl)-1,3-thiazol-4-yl)methyl)pyrrolidin-3-yl)methanesulfonamide] | 101%
CCS(=O)(=O)N[C@H]1CCN(C(=O)C(C)(C)O)[C@H]1Cc1cccc(-c2cc(F)cc(F)c2)c1F [Example 435, N-((2S,3S)-1-(2-hydroxy-2-methylpropanoyl)-2-((2,3′,5′-trifluorobiphenyl-3-yl)methyl)pyrrolidin-3-yl)ethanesulfonamide] | 107%
CC1(C(=O)N2CC[C@H](NS(C)(=O)=O)[C@@H]2Cc2csc(-c3cc(F)cc(F)c3)n2)CCC1 (relative stereo) [Example 322, N-(cis-2-((2-(3,5-difluorophenyl)-1,3-thiazol-4-yl)methyl)-1-((1-methylcyclobutyl)carbonyl)pyrrolidin-3-yl)methanesulfonamide] | 104%
CCS(=O)(=O)N[C@H]1CCN(C(=O)C2CCC2)[C@H]1Cc1csc(-c2cc(F)cc(F)c2)n1 (relative stereo) [Example 315, N-(cis-1-(cyclobutylcarbonyl)-2-((2-(3,5-difluorophenyl)-1,3-thiazol-4-yl)methyl)pyrrolidin-3-yl)ethanesulfonamide] | 105%
CS(=O)(=O)N[C@H]1CCN(C(=O)C2(O)CCC2)[C@H]1Cc1cccc(-c2cc(F)cc(F)c2)c1 [Example 344, N-((2S,3S)-2-((3′,5′-difluorobiphenyl-3-yl)methyl)-1-((1-hydroxycyclobutyl)carbonyl)pyrrolidin-3-yl)methanesulfonamide] | 99%
CS(=O)(=O)N[C@H]1CCN(C(=O)C2CCC2)[C@H]1Cc1csc(-c2cc(F)cc(F)c2)n1 (relative stereo) [Example 258, N-(cis-1-(cyclobutylcarbonyl)-2-((2-(3,5-difluorophenyl)-1,3-thiazol-4-yl)methyl)pyrrolidin-3-yl)methanesulfonamide] | 95%
CS(=O)(=O)N[C@H]1CCN(C(=O)N2CCC2)[C@H]1Cc1cccc(-c2cccc(F)c2)c1F [Example 352, N-((2S,3S)-1-(azetidin-1-ylcarbonyl)-2-((2,3′-difluorobiphenyl-3-yl)methyl)pyrrolidin-3-yl)methanesulfonamide] | 102%
C=C(C)c1cccc(C[C@H]2[C@@H](NS(=O)(=O)C3CC3)CCCN2C(=O)OC(C)C)n1 (relative stereo) [Example 191, isopropyl cis-3-((cyclopropylsulfonyl)amino)-2-((6-(prop-1-en-2-yl)pyridin-2-yl)methyl)piperidine-1-carboxylate] | 79%
CCS(=O)(=O)N[C@H]1CCN(C(=O)N(C)C)[C@H]1Cc1cccc(-c2cccc(F)c2)c1F [Example 373, (2S,3S)-2-((2,3′-difluorobiphenyl-3-yl)methyl)-3-((ethylsulfonyl)amino)-N,N-dimethylpyrrolidine-1-carboxamide] | 96%

Results, then the molecule that gave them:

OX2R agonist activity (3 μM, %) | SMILES
100% | CS(=O)(=O)N[C@H]1CCN(C(=O)C23CC(C2)C3)[C@H]1Cc1cccc(-c2cccc(F)c2)c1 [Example 306, N-((2S,3S)-1-(bicyclo[1.1.1]pent-1-ylcarbonyl)-2-((3′-fluorobiphenyl-3-yl)methyl)pyrrolidin-3-yl)methanesulfonamide]
98% | CCOC(=O)N1CCC[C@H](NS(C)(=O)=O)[C@@H]1Cc1cccc(-c2ccccc2)c1 (relative stereo) [Example 29, ethyl cis-2-(biphenyl-3-ylmethyl)-3-((methylsulfonyl)amino)piperidine-1-carboxylate]
99% | CC(C)OC(=O)N1CCC[C@H](NS(=O)(=O)N(C)C)[C@@H]1Cc1cccc(-c2ccccc2)n1 (relative stereo) [Example 185, isopropyl cis-3-((dimethylsulfamoyl)amino)-2-((6-phenylpyridin-2-yl)methyl)piperidine-1-carboxylate]
91% | CCNC(=O)N1CCC[C@H](NS(C)(=O)=O)[C@@H]1Cc1cccc(Oc2ccccc2)c1 (relative stereo) [Example 10, cis-N-ethyl-3-((methylsulfonyl)amino)-2-(3-phenoxybenzyl)piperidine-1-carboxamide]
99% | CC(C)(C)C(=O)N1CC[C@H](NS(C)(=O)=O)[C@@H]1Cc1cccc(-c2ccccc2)c1 (relative stereo) [Example 227, N-(cis-2-(biphenyl-3-ylmethyl)-1-(2,2-dimethylpropanoyl)pyrrolidin-3-yl)methanesulfonamide]
82% | COC(=O)N1CCC[C@H](NS(C)(=O)=O)[C@@H]1Cc1cccc(-c2cccc(F)c2)c1 (relative stereo) [Example 14, methyl cis-2-((3′-fluorobiphenyl-3-yl)methyl)-3-((methylsulfonyl)amino)piperidine-1-carboxylate]
103% | COCS(=O)(=O)N[C@H]1CCN(C(=O)C2CCC2)[C@H]1Cc1cccc(-c2ccccc2)c1 [Example 324, N-((2S,3S)-2-(biphenyl-3-ylmethyl)-1-(cyclobutylcarbonyl)pyrrolidin-3-yl)-1-methoxymethanesulfonamide]
106% | CC(C)OC(=O)N1CCCC(NS(C)(=O)=O)C1Cc1cccc(-c2ccccc2)n1 (stereo not drawn) [Example 76, Optically Active isopropyl cis-3-((methylsulfonyl)amino)-2-((6-phenylpyridin-2-yl)methyl)piperidine-1-carboxylate]
106% | CC(C)C(=O)N1CC[C@H](NS(C)(=O)=O)[C@@H]1Cc1cccc(-c2ccccc2)c1 (relative stereo) [Example 209, N-(cis-2-(biphenyl-3-ylmethyl)-1-isobutyrylpyrrolidin-3-yl)methanesulfonamide]
106% | CC(C)OC(=O)N1CCC[C@H](NS(C)(=O)=O)[C@@H]1Cc1cccc(-c2cccc(F)c2F)c1 (relative stereo) [Example 116, isopropyl cis-2-((2′,3′-difluorobiphenyl-3-yl)methyl)-3-((methylsulfonyl)amino)piperidine-1-carboxylate]
102% | CS(=O)(=O)N[C@H]1CCN(C(=O)C2CCC2)[C@H]1Cc1cccc(-c2cc(F)cc(F)c2)c1 [Example 310, N-((2S,3S)-1-(cyclobutylcarbonyl)-2-((3′,5′-difluorobiphenyl-3-yl)methyl)pyrrolidin-3-yl)methanesulfonamide]
109% | CS(=O)(=O)N[C@H]1CCN(C(=O)N2CC(F)(F)C2)[C@H]1Cc1cccc(-c2cccc(F)c2)c1 [Example 342, N-((2S,3S)-1-((3,3-difluoroazetidin-1-yl)carbonyl)-2-((3′-fluorobiphenyl-3-yl)methyl)pyrrolidin-3-yl)methanesulfonamide]
69% | CS(=O)(=O)N[C@H]1CCN(C(=O)OC2CC2)[C@H]1Cc1cccc(-c2ccccc2)c1 (relative stereo) [Example 108, cyclopropyl cis-2-(biphenyl-3-ylmethyl)-3-((methylsulfonyl)amino)pyrrolidine-1-carboxylate]
107% | CC1CCN1C(=O)N1CC[C@H](NS(C)(=O)=O)[C@@H]1Cc1cccc(-c2cccc(F)c2)c1 (stereo partly drawn) [Example 343, N-((2S,3S)-2-((3′-fluorobiphenyl-3-yl)methyl)-1-((2-methylazetidin-1-yl)carbonyl)pyrrolidin-3-yl)methanesulfonamide]
